For the experiment, the target named is T1, sulfamidase (wild-type mouse DBS) (Mus musculus, UniProt Q9EQ08).
T1 sequence (Q9EQ08 23-502): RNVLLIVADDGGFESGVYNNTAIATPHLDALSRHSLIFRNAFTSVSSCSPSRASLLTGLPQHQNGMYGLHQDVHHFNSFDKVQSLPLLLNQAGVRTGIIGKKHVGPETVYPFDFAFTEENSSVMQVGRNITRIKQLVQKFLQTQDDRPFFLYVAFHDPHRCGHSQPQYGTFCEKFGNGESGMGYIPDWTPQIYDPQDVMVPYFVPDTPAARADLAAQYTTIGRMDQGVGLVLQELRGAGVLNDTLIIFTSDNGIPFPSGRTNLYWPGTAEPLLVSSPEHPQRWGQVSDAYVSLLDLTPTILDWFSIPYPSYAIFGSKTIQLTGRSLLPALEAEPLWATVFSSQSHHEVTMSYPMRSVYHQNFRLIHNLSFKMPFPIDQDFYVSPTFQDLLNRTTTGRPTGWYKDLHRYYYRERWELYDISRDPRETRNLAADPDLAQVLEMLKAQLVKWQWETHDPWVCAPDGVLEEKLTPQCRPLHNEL
The experiment is described as follows: LC-MS/MS product formation in dried blood spot, knockout mouse control. The settings on record: 1 mM substrate, otherwise same. It is filed as biochemical.

On to `O=S(=O)(O)N[C@H]1[C@@H](Oc2ccc3ccccc3c2)O[C@H](CO)[C@@H](O)[C@@H]1O` [MPS-IIIA-S, 2-sulfamate-2-deoxy-1-α-(2-naphthyl)-glucopyranoside], for which the “LC-MS/MS product formation in dried blood spot, knockout mouse control” value is recorded as “sulfamidase activity was readily detected in a DBS made using blood from a wild-type mouse”.

The values are drawn from PMC6175634 (Molecular genetics and metabolism, 2018).
